In brackets after ≈: the same amount, converted by molar mass. Activity calls are given as the source filed them. No cut-off for these calls is given here.
Columns and labels:
Bacillus subtilis [1] = experiment: Antibacterial activity against Bacillus subtilis at 25 ug after 24 hrs by disc diffusion assay; format: functional; conditions: read-out: IZ
Staphylococcus aureus [2] = experiment: Antibacterial activity against Staphylococcus aureus at 20 ug after 24 hrs by disc diffusion assay; format: functional; conditions: read-out: IZ
Staphylococcus aureus [3] = experiment: Antibacterial activity against Staphylococcus aureus at 5 ug after 24 hrs by disc diffusion assay; format: functional; conditions: read-out: IZ
Escherichia coli [4] = experiment: Antibacterial activity against Escherichia coli at 20 ug after 24 hrs by disc diffusion assay; format: functional; conditions: read-out: IZ
Escherichia coli [5] = experiment: Antibacterial activity against Escherichia coli at 25 ug after 24 hrs by disc diffusion assay; format: functional; conditions: read-out: IZ
Bacillus subtilis [6] = experiment: Antibacterial activity against Bacillus subtilis at 20 ug after 24 hrs by disc diffusion assay; format: functional; conditions: read-out: IZ
Klebsiella pneumoniae [7] = experiment: Antibacterial activity against Klebsiella pneumoniae after 18 to 20 hrs by broth micro dilution assay; format: functional
Pseudomonas aeruginosa [8] = experiment: Antibacterial activity against Pseudomonas aeruginosa at 10 ug after 24 hrs by disc diffusion assay; format: functional; conditions: read-out: IZ
Pseudomonas aeruginosa [9] = experiment: Antibacterial activity against Pseudomonas aeruginosa at 5 ug after 24 hrs by disc diffusion assay; format: functional; conditions: read-out: IZ
Salmonella typhi [10] = experiment: Antibacterial activity against Salmonella typhi at 5 ug after 24 hrs by disc diffusion assay; format: functional, Salmonella enterica subsp. enterica serovar Typhi; conditions: Salmonella enterica, read-out: IZ
Escherichia coli [11] = experiment: Antibacterial activity against Escherichia coli at 5 ug after 24 hrs by disc diffusion assay; format: functional; conditions: read-out: IZ
Staphylococcus aureus [12] = experiment: Antibacterial activity against Staphylococcus aureus at 25 ug after 24 hrs by disc diffusion assay; format: functional; conditions: read-out: IZ
Escherichia coli [13] = experiment: Antibacterial activity against Escherichia coli after 18 to 20 hrs by broth micro dilution assay; format: functional
Pseudomonas aeruginosa [14] = experiment: Antibacterial activity against Pseudomonas aeruginosa after 18 to 20 hrs by broth micro dilution assay; format: functional
Escherichia coli [15] = experiment: Inhibition of Escherichia coli DNA gyrase -mediated DNA relaxation using pBR322 DNA as substrate at […] after 1 hrs by agarose gel electrophoresis
Bacillus subtilis [16] = experiment: Antibacterial activity against Bacillus subtilis after 18 to 20 hrs by broth micro dilution assay; format: functional
Staphylococcus aureus [17] = experiment: Antibacterial activity against Staphylococcus aureus at 10 ug after 24 hrs by disc diffusion assay; format: functional; conditions: read-out: IZ
Escherichia coli [18] = experiment: Antibacterial activity against Escherichia coli at 15 ug after 24 hrs by disc diffusion assay; format: functional; conditions: read-out: IZ
Klebsiella pneumoniae [19] = experiment: Antibacterial activity against Klebsiella pneumoniae at 20 ug after 24 hrs by disc diffusion assay; format: functional; conditions: read-out: IZ
Salmonella typhi [20] = experiment: Antibacterial activity against Salmonella typhi at 20 ug after 24 hrs by disc diffusion assay; format: functional, Salmonella enterica subsp. enterica serovar Typhi; conditions: Salmonella enterica, read-out: IZ
Salmonella typhi [21] = experiment: Antibacterial activity against Salmonella typhi at 10 ug after 24 hrs by disc diffusion assay; format: functional, Salmonella enterica subsp. enterica serovar Typhi; conditions: Salmonella enterica, read-out: IZ
Escherichia coli [22] = experiment: Inhibition of Escherichia coli DNA gyrase assessed as inhibition of DNA supercoiling activity using pBR322 DNA as substrate at […] after 3 hrs by agarose gel electrophoresis
Salmonella typhi [23] = experiment: Antibacterial activity against Salmonella typhi after 18 to 20 hrs by broth micro dilution assay; format: functional, Salmonella enterica subsp. enterica serovar Typhi; conditions: Salmonella enterica
Escherichia coli [24] = experiment: Antibacterial activity against Escherichia coli at 10 ug after 24 hrs by disc diffusion assay; format: functional; conditions: read-out: IZ
Salmonella typhi [25] = experiment: Antibacterial activity against Salmonella typhi at 15 ug after 24 hrs by disc diffusion assay; format: functional, Salmonella enterica subsp. enterica serovar Typhi; conditions: Salmonella enterica, read-out: IZ
Escherichia coli [26] = experiment: Inhibition of DNA gyrase mRNA expression in Escherichia coli measured up to 24 hrs by RT-PCR; format: functional, organism-based
Bacillus subtilis [27] = experiment: Antibacterial activity against Bacillus subtilis at 15 ug after 24 hrs by disc diffusion assay; format: functional; conditions: read-out: IZ
Klebsiella pneumoniae [28] = experiment: Antibacterial activity against Klebsiella pneumoniae at 5 ug after 24 hrs by disc diffusion assay; format: functional; conditions: read-out: IZ
Staphylococcus aureus [29] = experiment: Antibacterial activity against Staphylococcus aureus at 15 ug after 24 hrs by disc diffusion assay; format: functional; conditions: read-out: IZ
Staphylococcus aureus [30] = experiment: Antibacterial activity against Staphylococcus aureus after 18 to 20 hrs by broth micro dilution assay; format: functional
Pseudomonas aeruginosa [31] = experiment: Antibacterial activity against Pseudomonas aeruginosa at 25 ug after 24 hrs by disc diffusion assay; format: functional; conditions: read-out: IZ
Pseudomonas aeruginosa [32] = experiment: Antibacterial activity against Pseudomonas aeruginosa at 20 ug after 24 hrs by disc diffusion assay; format: functional; conditions: read-out: IZ
Salmonella typhi [33] = experiment: Antibacterial activity against Salmonella typhi at 25 ug after 24 hrs by disc diffusion assay; format: functional, Salmonella enterica subsp. enterica serovar Typhi; conditions: Salmonella enterica, read-out: IZ
Pseudomonas aeruginosa [34] = experiment: Antibacterial activity against Pseudomonas aeruginosa at 15 ug after 24 hrs by disc diffusion assay; format: functional; conditions: read-out: IZ
Klebsiella pneumoniae [35] = experiment: Antibacterial activity against Klebsiella pneumoniae at 25 ug after 24 hrs by disc diffusion assay; format: functional; conditions: read-out: IZ
Klebsiella pneumoniae [36] = experiment: Antibacterial activity against Klebsiella pneumoniae at 15 ug after 24 hrs by disc diffusion assay; format: functional; conditions: read-out: IZ
Klebsiella pneumoniae [37] = experiment: Antibacterial activity against Klebsiella pneumoniae at 10 ug after 24 hrs by disc diffusion assay; format: functional; conditions: read-out: IZ

CCC1[C@@H]2Nc3ccccc3C(c3ccccc3)[C@H]2CN1OS(=O)(=O)c1ccc(C)cc1 (stereo partly specified)
zone of inhibition at 25 µg/disc (Bacillus subtilis [1]): 9 mm
zone of inhibition at 20 µg/disc (Staphylococcus aureus [2]): 30 mm
zone of inhibition at 5 µg/disc (Staphylococcus aureus [3]): 20 mm
zone of inhibition at 20 µg/disc (Escherichia coli [4]): 20 mm
zone of inhibition at 25 µg/disc (Escherichia coli [5]): 23 mm
zone of inhibition at 20 µg/disc (Bacillus subtilis [6]): 7 mm
MIC50 (Klebsiella pneumoniae [7]): 64 µg/mL (≈ 143 µM)
MIC90 (Klebsiella pneumoniae [7]): 64 µg/mL (≈ 143 µM)
zone of inhibition at 10 µg/disc (Pseudomonas aeruginosa [8]): 14 mm
zone of inhibition at 5 µg/disc (Pseudomonas aeruginosa [9]): 10 mm
zone of inhibition at 5 µg/disc (Salmonella typhi [10]): 10 mm
zone of inhibition at 5 µg/disc (Escherichia coli [11]): 10 mm
zone of inhibition at 25 µg/disc (Staphylococcus aureus [12]): 36 mm
MIC50 (Escherichia coli [13]): 64 µg/mL (≈ 143 µM)
MIC90 (Escherichia coli [13]): 64 µg/mL (≈ 143 µM)
MIC50 (Pseudomonas aeruginosa [14]): 64 µg/mL (≈ 143 µM)
MIC90 (Pseudomonas aeruginosa [14]): 128 µg/mL (≈ 285 µM)
inhibition (Escherichia coli [15]): Active
MIC50 (Bacillus subtilis [16]): 64 µg/mL (≈ 143 µM)
MIC90 (Bacillus subtilis [16]): 128 µg/mL (≈ 285 µM)
zone of inhibition at 10 µg/disc (Staphylococcus aureus [17]): 24 mm
zone of inhibition at 15 µg/disc (Escherichia coli [18]): 18 mm
zone of inhibition at 20 µg/disc (Klebsiella pneumoniae [19]): 34 mm
zone of inhibition at 20 µg/disc (Salmonella typhi [20]): 22 mm
zone of inhibition at 10 µg/disc (Salmonella typhi [21]): 16 mm
DNA gyrase inhibition (active/inactive) (Escherichia coli [22]): Active
MIC50 (Salmonella typhi [23]): 64 µg/mL (≈ 143 µM)
MIC90 (Salmonella typhi [23]): 128 µg/mL (≈ 285 µM)
zone of inhibition at 10 µg/disc (Escherichia coli [24]): 16 mm
zone of inhibition at 15 µg/disc (Salmonella typhi [25]): 18 mm
inhibition of gyrase mRNA expression (active/not active) (Escherichia coli [26]): inactive
zone of inhibition at 15 µg/disc (Bacillus subtilis [27]): 6 mm
zone of inhibition at 5 µg/disc (Klebsiella pneumoniae [28]): 20 mm
zone of inhibition at 15 µg/disc (Staphylococcus aureus [29]): 26 mm
MIC50 (Staphylococcus aureus [30]): 64 µg/mL (≈ 143 µM)
MIC90 (Staphylococcus aureus [30]): 128 µg/mL (≈ 285 µM)
zone of inhibition at 25 µg/disc (Pseudomonas aeruginosa [31]): 23 mm
zone of inhibition at 20 µg/disc (Pseudomonas aeruginosa [32]): 20 mm
zone of inhibition at 25 µg/disc (Salmonella typhi [33]): 24 mm
zone of inhibition at 15 µg/disc (Pseudomonas aeruginosa [34]): 16 mm
zone of inhibition at 25 µg/disc (Klebsiella pneumoniae [35]): 36 mm
zone of inhibition at 15 µg/disc (Klebsiella pneumoniae [36]): 30 mm
zone of inhibition at 10 µg/disc (Klebsiella pneumoniae [37]): 26 mm

CCC1[C@H]2c3c(n(C)c4ccccc4c3=O)OC(c3ccccc3)[C@@H]2CN1OS(=O)(=O)c1ccc(C)cc1 (mixture of isomers)
zone of inhibition at 25 µg/disc (Bacillus subtilis [1]): 9 mm
zone of inhibition at 20 µg/disc (Staphylococcus aureus [2]): 30 mm
zone of inhibition at 5 µg/disc (Staphylococcus aureus [3]): 20 mm
zone of inhibition at 20 µg/disc (Escherichia coli [4]): 22 mm
zone of inhibition at 25 µg/disc (Escherichia coli [5]): 23 mm
zone of inhibition at 20 µg/disc (Bacillus subtilis [6]): 7 mm
MIC50 (Klebsiella pneumoniae [7]): 128 µg/mL
MIC90 (Klebsiella pneumoniae [7]): 128 µg/mL
zone of inhibition at 10 µg/disc (Pseudomonas aeruginosa [8]): 14 mm
zone of inhibition at 5 µg/disc (Pseudomonas aeruginosa [9]): 10 mm
zone of inhibition at 5 µg/disc (Salmonella typhi [10]): 10 mm
zone of inhibition at 5 µg/disc (Escherichia coli [11]): 12 mm
zone of inhibition at 25 µg/disc (Staphylococcus aureus [12]): 36 mm
MIC50 (Escherichia coli [13]): 128 µg/mL
MIC90 (Escherichia coli [13]): 128 µg/mL
MIC50 (Pseudomonas aeruginosa [14]): 128 µg/mL
MIC90 (Pseudomonas aeruginosa [14]): 128 µg/mL
inhibition (Escherichia coli [15]): Active
MIC50 (Bacillus subtilis [16]): 128 µg/mL
MIC90 (Bacillus subtilis [16]): 128 µg/mL
zone of inhibition at 10 µg/disc (Staphylococcus aureus [17]): 24 mm
zone of inhibition at 15 µg/disc (Escherichia coli [18]): 16 mm
zone of inhibition at 20 µg/disc (Klebsiella pneumoniae [19]): 34 mm
zone of inhibition at 20 µg/disc (Salmonella typhi [20]): 22 mm
zone of inhibition at 10 µg/disc (Salmonella typhi [21]): 16 mm
DNA gyrase inhibition (active/inactive) (Escherichia coli [22]): Active
MIC50 (Salmonella typhi [23]): 128 µg/mL
MIC90 (Salmonella typhi [23]): 128 µg/mL
zone of inhibition at 10 µg/disc (Escherichia coli [24]): 14 mm
zone of inhibition at 15 µg/disc (Salmonella typhi [25]): 18 mm
inhibition of gyrase mRNA expression (active/not active) (Escherichia coli [26]): Active
zone of inhibition at 15 µg/disc (Bacillus subtilis [27]): 6 mm
zone of inhibition at 5 µg/disc (Klebsiella pneumoniae [28]): 20 mm
zone of inhibition at 15 µg/disc (Staphylococcus aureus [29]): 26 mm
MIC50 (Staphylococcus aureus [30]): 128 µg/mL
MIC90 (Staphylococcus aureus [30]): 128 µg/mL
zone of inhibition at 25 µg/disc (Pseudomonas aeruginosa [31]): 23 mm
zone of inhibition at 20 µg/disc (Pseudomonas aeruginosa [32]): 20 mm
zone of inhibition at 25 µg/disc (Salmonella typhi [33]): 24 mm
zone of inhibition at 15 µg/disc (Pseudomonas aeruginosa [34]): 16 mm
zone of inhibition at 25 µg/disc (Klebsiella pneumoniae [35]): 36 mm
zone of inhibition at 15 µg/disc (Klebsiella pneumoniae [36]): 30 mm
zone of inhibition at 10 µg/disc (Klebsiella pneumoniae [37]): 26 mm

From ChEMBL document CHEMBL1781873, “Synthesis and antibacterial property of pyrrolopyrano quinolinones and pyrroloquinolines” (2011)
